Laboratory results reported in PMC11342128, “Gold(I) and gold(III) carbene complexes from the marine betaine norzooanemonin: inhibition of thioredoxin reductase, antiproliferative and antimicrobial activity” (RSC Medicinal Chemistry, 2024).

Assays:
[1] = molecular target: TrxR from E. coli (Escherichia coli, UniProt P0A9P4); test: Inhibition of isolated bacterial TrxR, DTNB-based assay; format: biochemical; design: purchased Sigma-Aldrich; conditions: compounds at 0.5 µM; n = 2; Table S13
Description: The inhibition of isolated TrxR from E. coli was determined for the selected monocarbene gold(I/III) complexes 2a–c and 4b–c using a DTNB-based assay (Table 3). […] The inhibition of bacterial TrxR for compound 2a was investigated in our previous report (Table 3).
S2.3. Inhibition of bacterial TrxR from E. coli
The TrxR (E. coli) inhibition assay was performed according to previously published procedures.[8] The assay is partly based on the procedure developed by Lu et al[9] and makes use of the reduction of DTNB (5,5′-dithiobis-(2-nitrobenzoic acid)). Solutions of E. coli TrxR (10.1 U/mL) and E. coli thioredoxin (Trx) (312 μg/mL) (both purchased from Sigma-Aldrich) were prepared in distilled water. Stock solutions of the test compounds (2 mM) were prepared in DMSO and serially diluted with TE buffer (Tris-HCl 50 mM, EDTA 1 mM, pH 7.5). 20 μL of these solutions or TE buffer without the test compounds (positive control) were mixed with the TrxR solution (10 μL), the Trx solution (10 μL) and 100 µl of NADPH (200 μM) in TE buffer in a well on a 96-well plate. As a blank control, 200 μM NADPH in TE buffer (100 μL) mixed with a DMSO / buffer mixture (40 μL) was used (final concentrations of DMSO: 0.5% v/v). The plate was incubated for 75 min at 25°C with moderate shaking. After incubation, 100 μL of a reaction mixture (TE buffer containing 200 μM NADPH and 5 mM DTNB) was added to each well to initiate the reaction. After thorough mixing, the formation of 5-TNB was monitored by a microplate reader at 405 nm in 35 s intervals (10 measurements). The values were corrected by subtraction of the blank solution absorption values. The increase in concentration of 5-TNB followed a linear trend (r2≥ 0.990) and the enzymatic activities were calculated as the gradients (increase in absorbance per second) thereof. […]
for each test compound, where the highest test compound concentration was used and the enzyme solution was replaced by TE buffer. The inhibition is presented as the mean IC50 values and standard deviations obtained in three independent experiments.
Table S13. Activity of TrxR from E. coli in presence of compounds at 0.5 µM (n = 2, n.d.= not

[2] = tested on: A549 cells; test: Gold cellular uptake, HRCS-AAS; format: cell-based; conditions: 2 μM, Fig. 5
Description: The amount of potential drug accumulated in the cell is often described as one of the critical factors for further biological effect. The significant difference in antiproliferative effect observed for dicarbene complexes 5a–c may be directly related to the amount of gold ions taken up by the treated cells. The cellular accumulation of these complexes was evaluated in the most sensitive cancer cell line A549. […] The gold content was further quantified using high-resolution continuum source atomic absorption spectroscopy (HRCS-AAS).
S2.4. Cellular uptake and metal quantification studies in A549 cells
Cellular uptake studies in A549 cells
For cellular accumulation studies, A549 lung carcinoma cells were seeded in 75 cm2 cell culture flasks, incubated with 10 ml DMEM/10% FCS cell culture medium at 37 °C in a 5% CO2 humidified atmosphere until they reached a confluence of 75-80%. The cells were treated with DMEM containing selected test compounds 3a and 3c dissolved in DMF (final DMF concentration: 0.1%; final test compound concentration: 2 μM). After 6 and 24 h of exposure, cells were isolated by removing the media followed by trypsinization. The trypsinized cells were washed with 9 ml PBS buffer (pH 7.4), scraped, and isolated by centrifugation (5 min, 3500 rpm). The obtained cell pellets were stored at -20 °C for further use. All experiments were carried out in triplicate.
Metal quantification in cell lysates by HRCS-AAS
Dry cell pellets were diluted with 400 μl of Milli-Q® water and lysed for 30 min in an ultrasonic bath (240 W, […]). For protein quantification. 20 μl of each sample was added to 200 μl of Bradford reagent (25 mg Serva Blue G (Sigma Aldrich) in 25 ml Ethanol 96%, 25 ml Milli-Q® water and 50 ml H3PO4 86%, stored at -20 °C and freshly diluted 1+4 with Milli-Q® water prior to use) and incubated on a 96-well plate while shaking at room temperature for 30 min and measured by a Perkin Elmer Victor X4 plate reader at a wavelength of 595 nm. The measurements were performed in duplicate, and the mean was used to calculate the protein content. For a standard calibration curve, bovine serum albumin (Sigma Aldrich) was used in graded concentrations.
The gold quantification was performed using a high-resolution continuum source atomic absorption spectrometer ContrAA® 700 (Analytik Jena AG). A pure sample of the respective complex 5c was used as standard, and calibration was done in a matrix-matched manner (meaning all samples and standards were adjusted to a protein concentration of 1 mg/ml by dilution with Milli-Q® water). The calibration and samples were measured in duplicate. The final cellular gold concentrations were calculated from data obtained in three independent experiments and are expressed as pmol of metal per mg of cell protein. Sample preparation: Triton-X 100 (1%, 20 μl) and ascorbic acid (1%, 20 μl) were added to each calibration standard or probe (200 μl). A volume of 20 μl was injected into a coated standard graphite tube (Analytik Jena AG) and thermally processed as previously described.[10] The gold amount was analyzed at a wavelength of 242.79 nm.

[3] = tested on: Vero E6 African green monkey kidney cells; test: Antiproliferative activity in non-tumour reference cell line; format: cell-based; conditions: for IC50: Vero E6 non-tumour reference cell line, SD in parentheses, n = 3; for Tumour selectivity: tumour cell lines in comparison to Vero E6: comparison of IC50 in tumour cell lines and non-tumour Vero E6
Description: The antiproliferative potential of the gold–NHC complexes was determined in A549 lung carcinoma cells, MDA-MB-231 breast cancer cells, MCF-7 breast adenocarcinoma cells, and HT-29 colon carcinoma cells (Table 1). Vero E6 African green monkey kidney cells served as a reference cell line to check for possible tumour selectivity. Auranofin (AF) was used as an established reference drug.[15,17] […]
S2.2. Cytotoxicity and Anticancer Studies
Cell culture and cytotoxicity
Cell lines were sourced from DSMZ (German Collection of Microorganisms and Cell Cultures GmbH) and maintained through standard procedures in Dulbecco's Modified Eagle Medium (DMEM) supplemented with 10% fetal calf serum and 50 mg/L gentamycin. Antiproliferative effects were assessed using a well-established assay protocol. In brief, 100 μL volumes of A549 cells (13,243 cells per mL), HT-29 cells (14,657 cells per mL), MDA-MB-231 cells (6,613 cells per mL), or MCF-7 cells (6,917 cells per mL) were transferred into the wells of 96-well plates and incubated at 37°C/5% CO2 for 72 […]
Freshly prepared stock solutions of the compounds in DMSO were diluted with the respective cell culture medium to achieve graded concentrations (final concentration of DMSO: 0.1% v/v). After 72 hours (A549, HT-29) or 96 hours (MCF-7, MDA-MB-231) of exposure, the cell biomass was assessed through crystal violet staining, and the IC50 value was determined as the concentration causing 50% inhibition of cell proliferation compared to an untreated control. Results were calculated as the mean values of three independent experiments.

Chain of TrxR from E. coli (P0A9P4 2-321): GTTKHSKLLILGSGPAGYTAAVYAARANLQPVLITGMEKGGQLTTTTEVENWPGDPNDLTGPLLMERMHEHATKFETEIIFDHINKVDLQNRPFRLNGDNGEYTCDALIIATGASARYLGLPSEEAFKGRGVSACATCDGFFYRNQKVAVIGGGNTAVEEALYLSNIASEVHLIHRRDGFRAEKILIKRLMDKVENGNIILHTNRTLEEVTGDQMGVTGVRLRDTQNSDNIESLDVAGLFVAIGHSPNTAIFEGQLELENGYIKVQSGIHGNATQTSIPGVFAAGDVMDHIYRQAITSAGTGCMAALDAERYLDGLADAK

| SMILES | TrxR activity, % of control [1] | Gold uptake (cellular gold content) ([2]; 6 h, 37 °C) | IC50 [3] | Gold uptake (cellular gold content) ([2]; 24 h compared with 6 h) | Tumour selectivity: tumour cell lines in comparison to Vero E6 [3] |
| --- | --- | --- | --- | --- | --- |
| Cn1cc(C(=O)O)[n+](C)[c]1[Au-]([Cl])([Cl])[c]1n(C)cc(C(=O)O)[n+]1C.[Cl-] [5a] | 91.6 % of control | low gold uptake | > 100 µM |  |  |
| COC(=O)c1cn(C)[c]([Au-]([Cl])([Cl])[c]2n(C)cc(C(=O)OC)[n+]2C)[n+]1C.O=S(=O)([O-])C(F)(F)F [5b] | 90.8 % of control | higher degree of gold uptake | > 100 µM | decreased significantly | clear preference for the tumour cell lines |
| CCOC(=O)c1cn(C)[c]([Au-]([Cl])([Cl])[c]2n(C)cc(C(=O)OCC)[n+]2C)[n+]1C.F[B-](F)(F)F [5c] | 93.5 % of control | higher degree of gold uptake | 30.8 µM | decreased significantly | clear preference for the tumour cell lines |
